In ChEMBL document CHEMBL1201861, “Genomics of Drug Sensitity in Cancer screening data, Wellcome Trust Sanger Institute”:
pIC50: −log10 of the molar value. Counter-ions that a name gives are not always drawn.

Tests used:
SW780 = experiment: cells; format: functional, cell-based, Homo sapiens; conditions: Homo sapiens, SW780;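 note: growth inhibition of the cells, read out with a cell viability assay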
Description: SANGER: Inhibition of human SW780 cell growth in a cell viability assay.

CAL-12T = experiment: cells; format: functional, cell-based, Homo sapiens; conditions: Homo sapiens, CAL-12T;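 note: growth inhibition of human CAL-12T cells, read out with a cell viability assay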
Description: SANGER: Inhibition of human CAL-12T cell growth in a cell viability assay.

GDM-1 = experiment: cells; format: functional, cell-based, Homo sapiens; conditions: Homo sapiens, GDM-1;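 note: cell viability readout used to measure growth inhibition of human GDM-1 cells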
Description: SANGER: Inhibition of human GDM-1 cell growth in a cell viability assay.

RPMI-6666 = experiment: cells; format: functional, cell-based, Homo sapiens; conditions: Homo sapiens, RPMI-6666
Description: SANGER: Inhibition of human RPMI-6666 cell growth in a cell viability assay.

OVCAR-5 = experiment: cells; format: functional, cell-based, Homo sapiens; conditions: Homo sapiens, OVCAR-5;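 note: growth inhibition of human OVCAR-5 cells, read out with a cell viability assay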
Description: SANGER: Inhibition of human OVCAR-5 cell growth in a cell viability assay.

SW13 = experiment: cells; format: functional, cell-based, Homo sapiens; conditions: Homo sapiens, SW13;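 note: IC50 is inhibition of SW13 cell growth, read out with a cell viability assay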
Description: SANGER: Inhibition of human SW13 cell growth in a cell viability assay.

U-251 = experiment: cells; format: functional, cell-based, Homo sapiens; conditions: Homo sapiens, U-251;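 note: growth inhibition of human U-251 cells, read out through a cell viability assay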
Description: SANGER: Inhibition of human U251 cell growth in a cell viability assay.

LK-2 = experiment: cells; format: functional, cell-based, Homo sapiens; conditions: Homo sapiens, LK-2;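 note: growth inhibition of LK-2 cells, read out with a viability assay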
Description: SANGER: Inhibition of human LK-2 cell growth in a cell viability assay.

NCI-H2030 = experiment: cells; format: functional, cell-based, Homo sapiens; conditions: Homo sapiens, NCI-H2030;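 note: growth inhibition of human NCI-H2030 cells, read out by a cell viability assay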
Description: SANGER: Inhibition of human NCI-H2030 cell growth in a cell viability assay.

RD = experiment: cells; format: functional, cell-based, Homo sapiens; conditions: Homo sapiens, RD
Description: SANGER: Inhibition of human RD cell growth in a cell viability assay.

MKN-28 = experiment: cells; format: functional, cell-based, Homo sapiens; conditions: Homo sapiens, MKN-28;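 note: cell viability assay read-out, IC50 reflects suppression of growth of human MKN-28 cells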
Description: SANGER: Inhibition of human MKN28 cell growth in a cell viability assay.

CAKI-1 = experiment: cells; format: functional, cell-based, Homo sapiens; conditions: Homo sapiens, CAKI-1;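 note: growth inhibition of CAKI-1 cells, measured by a cell viability assay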
Description: SANGER: Inhibition of human CAKI-1 cell growth in a cell viability assay.

U2OS = experiment: cells; format: functional, cell-based, Homo sapiens, U-2-OS; conditions: Homo sapiens, U2OS;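 note: growth inhibition of human U-2-OS cells, determined with a cell viability assay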
Description: SANGER: Inhibition of human U-2-OS cell growth in a cell viability assay.

T-24 = experiment: cells; format: functional, cell-based, Homo sapiens; conditions: Homo sapiens, T-24;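 note: growth inhibition of T-24 cells, read out with a cell viability assay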
Description: SANGER: Inhibition of human T-24 cell growth in a cell viability assay.

PANC-03-27 = experiment: cells; format: functional, cell-based, Homo sapiens; conditions: Homo sapiens, PANC-03-27
Description: SANGER: Inhibition of human PANC-03-27 cell growth in a cell viability assay.

BT-20 = experiment: cells; format: functional, cell-based, Homo sapiens; conditions: Homo sapiens, BT-20;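 note: cell viability assay measuring suppression of growth in human BT-20 cells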
Description: SANGER: Inhibition of human BT-20 cell growth in a cell viability assay.

LU-99A = experiment: cells; format: functional, cell-based, Homo sapiens; conditions: Homo sapiens, LU-99A;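 note: growth inhibition of LU-99A cells, read out with a cell viability assay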
Description: SANGER: Inhibition of human LU-99A cell growth in a cell viability assay.

C3A = experiment: cells; format: functional, cell-based, Homo sapiens; conditions: Homo sapiens, C3A;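 note: growth inhibition of C3A human cells, quantified with a cell viability readout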
Description: SANGER: Inhibition of human C3A cell growth in a cell viability assay.

KYSE-70 cell line = experiment: cells; format: functional, cell-based, Homo sapiens; conditions: Homo sapiens, KYSE-70;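 note: cell viability assay read-out, with IC50 expressing suppression of KYSE-70 cell growth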
Description: SANGER: Inhibition of human KYSE-70 cell growth in a cell viability assay.

SIG-M5 = experiment: cells; format: functional, cell-based, Homo sapiens; conditions: Homo sapiens, SIG-M5;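 note: cell viability assay read-out, measuring how strongly growth of cultured human SIG-M5 cells is inhibited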
Description: SANGER: Inhibition of human SIG-M5 cell growth in a cell viability assay.

DBTRG-05MG = experiment: cells; format: functional, cell-based, Homo sapiens; conditions: Homo sapiens, DBTRG-05MG;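 note: cell viability assay measuring growth inhibition of human DBTRG-05MG cells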
Description: SANGER: Inhibition of human DBTRG-05MG cell growth in a cell viability assay.

TE-15 = experiment: cells; format: functional, cell-based, Homo sapiens; conditions: Homo sapiens, TE-15;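 note: cell viability readout of growth inhibition in TE-15 cells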
Description: SANGER: Inhibition of human TE-15 cell growth in a cell viability assay.

Daoy = experiment: cells; format: functional, cell-based, Homo sapiens; conditions: Homo sapiens, Daoy;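 note: daoy cell growth inhibition, read out as cell viability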
Description: SANGER: Inhibition of human Daoy cell growth in a cell viability assay.

M059J = experiment: cells; format: functional, cell-based, Homo sapiens; conditions: Homo sapiens, M059J;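 note: growth inhibition of M059J cells, read out with a cell viability assay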
Description: SANGER: Inhibition of human M059J cell growth in a cell viability assay.

SK-N-AS = experiment: cells; format: functional, cell-based, Homo sapiens; conditions: Homo sapiens, SK-N-AS;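 note: growth inhibition of human SK-N-AS cells, measured with a cell viability assay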
Description: SANGER: Inhibition of human SK-N-AS cell growth in a cell viability assay.

NCI-H524 = experiment: cells; format: functional, cell-based, Homo sapiens; conditions: Homo sapiens, NCI-H524;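 note: growth inhibition of human NCI-H524 cells, read out through a cell viability assay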
Description: SANGER: Inhibition of human NCI-H524 cell growth in a cell viability assay.

NCI-H650 = experiment: cells; format: functional, cell-based, Homo sapiens; conditions: Homo sapiens, NCI-H650;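 note: growth inhibition of NCI-H650 cells, read out by a viability assay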
Description: SANGER: Inhibition of human NCI-H650 cell growth in a cell viability assay.

GCT = experiment: cells; format: functional, cell-based, Homo sapiens; conditions: Homo sapiens, GCT;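 note: GCT cell line proliferation inhibition, read out with a cell viability assay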
Description: SANGER: Inhibition of human GCT cell growth in a cell viability assay.

NCI-H1793 = experiment: cells; format: functional, cell-based, Homo sapiens; conditions: Homo sapiens, NCI-H1793;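 note: cell growth inhibition, read out by a cell viability assay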
Description: SANGER: Inhibition of human NCI-H1793 cell growth in a cell viability assay.

AU565 = experiment: cells; format: functional, cell-based, Homo sapiens; conditions: Homo sapiens, AU565;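 note: cell viability assay measuring growth inhibition of human AU565 cells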
Description: SANGER: Inhibition of human AU565 cell growth in a cell viability assay.

SW1088 = experiment: cells; format: functional, cell-based, Homo sapiens; conditions: Homo sapiens, SW1088;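 note: growth inhibition of human SW1088 cells, read out by a cell viability assay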
Description: SANGER: Inhibition of human SW1088 cell growth in a cell viability assay.

CMK = experiment: cells; format: functional, cell-based, Homo sapiens; conditions: Homo sapiens, CMK;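 note: growth inhibition of CMK cells, read out as cell viability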
Description: SANGER: Inhibition of human CMK cell growth in a cell viability assay.

A673 = experiment: cells; format: functional, cell-based, Homo sapiens; conditions: Homo sapiens, A673;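 note: growth inhibition of human A673 cells, read out through a cell viability assay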
Description: SANGER: Inhibition of human A673 cell growth in a cell viability assay.

SCLC-21H = experiment: cells; format: functional, cell-based, Homo sapiens; conditions: Homo sapiens, SCLC-21H;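 note: growth inhibition of cultured human SCLC-21H cells, read out with a cell viability assay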
Description: SANGER: Inhibition of human SCLC-21H cell growth in a cell viability assay.

ARH-77 = experiment: cells; format: functional, cell-based, Homo sapiens; conditions: Homo sapiens, ARH-77;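 note: growth inhibition of ARH-77 cells, read out by a cell viability assay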
Description: SANGER: Inhibition of human ARH-77 cell growth in a cell viability assay.

LU-165 = experiment: cells; format: functional, cell-based, Homo sapiens; conditions: Homo sapiens, LU-165
Description: SANGER: Inhibition of human LU-165 cell growth in a cell viability assay.

SKG-IIIa = experiment: cells; format: functional, cell-based, Homo sapiens; conditions: Homo sapiens, SKG-IIIa;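 note: cell growth inhibition, read out with a cell viability assay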
Description: SANGER: Inhibition of human SKG-IIIa cell growth in a cell viability assay.

BC1 cell line = experiment: SANGER: Inhibition of human BC-1 cell growth in a cell viability assay.; format: functional, cell-based; conditions: Homo sapiens, BC1
NCI-H460 = experiment: cells; format: functional, cell-based, Homo sapiens; conditions: Homo sapiens, NCI-H460;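 note: cell viability assay scoring growth inhibition of human NCI-H460 cells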
Description: SANGER: Inhibition of human NCI-H460 cell growth in a cell viability assay.

BC-3 = experiment: cells; format: functional, cell-based, Homo sapiens; conditions: Homo sapiens, BC-3;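 note: cell viability assay measuring growth inhibition of human BC-3 cells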
Description: SANGER: Inhibition of human BC-3 cell growth in a cell viability assay.

NCI-H345 = experiment: cells; format: functional, cell-based, Homo sapiens; conditions: Homo sapiens, NCI-H345;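 note: growth inhibition of NCI-H345 cells measured with a cell viability assay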
Description: SANGER: Inhibition of human NCI-H345 cell growth in a cell viability assay.

SCC-25 = experiment: cells; format: functional, cell-based, Homo sapiens; conditions: Homo sapiens, SCC-25;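 note: growth inhibition of SCC-25 cells, measured with a cell viability assay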
Description: SANGER: Inhibition of human SCC-25 cell growth in a cell viability assay.

L-540 = experiment: cells; format: functional, cell-based, Homo sapiens; conditions: Homo sapiens, L-540;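 note: growth inhibition of the human L-540 cell line, read out with a viability assay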
Description: SANGER: Inhibition of human L-540 cell growth in a cell viability assay.

SW626 = experiment: cells; format: functional, cell-based, Homo sapiens; conditions: Homo sapiens, SW626;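 note: growth inhibition of SW626 cells, measured with a cell viability assay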
Description: SANGER: Inhibition of human SW626 cell growth in a cell viability assay.

NCI-H187 = experiment: cells; format: functional, cell-based, Homo sapiens; conditions: Homo sapiens, NCI-H187;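 note: growth inhibition of NCI-H187 cells, read out as cell viability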
Description: SANGER: Inhibition of human NCI-H187 cell growth in a cell viability assay.

SJRH30 = experiment: cells; format: functional, cell-based, Homo sapiens; conditions: Homo sapiens, SJRH30;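 note: growth inhibition of human SJRH30 cells, read out with a cell viability assay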
Description: SANGER: Inhibition of human SJRH30 cell growth in a cell viability assay.

Compound: COC1=CC(c2cc3ccccc3[nH]2)=N/C1=C\c1[nH]c(C)cc1C [OBATOCLAX MESYLATE]
- pIC50 (SW780): 5.96
- pIC50 (CAL-12T): > 7.20
- pIC50 (GDM-1): 6.16
- pIC50 (RPMI-6666): 7.05
- pIC50 (OVCAR-5): 6.51
- pIC50 (SW13): 6.39
- pIC50 (U-251): 6.48
- pIC50 (LK-2): 7.30
- pIC50 (NCI-H2030): 6.64
- pIC50 (RD): 6.85
- pIC50 (MKN-28): 6.75
- pIC50 (CAKI-1): 5.76
- pIC50 (U2OS): < 4.80
- pIC50 (T-24): 5.00
- pIC50 (PANC-03-27): 7.01
- pIC50 (BT-20): 5.35
- pIC50 (LU-99A): 6.11
- pIC50 (C3A): 6.43
- pIC50 (KYSE-70 cell line): 7.16
- pIC50 (SIG-M5): > 7.20
- pIC50 (DBTRG-05MG): 5.69
- pIC50 (TE-15): 6.69
- pIC50 (Daoy): 7.25
- pIC50 (M059J): 5.87
- pIC50 (SK-N-AS): 5.98
- pIC50 (NCI-H524): 5.02
- pIC50 (NCI-H650): 6.55
- pIC50 (GCT): 5.59
- pIC50 (NCI-H1793): < 4.80
- pIC50 (AU565): 6.37
- pIC50 (SW1088): 5.56
- pIC50 (CMK): 7.52
- pIC50 (A673): 6.12
- pIC50 (SCLC-21H): 4.92
- pIC50 (ARH-77): 6.96
- pIC50 (LU-165): 5.22
- pIC50 (SKG-IIIa): 5.33
- pIC50 (BC1 cell line): 7.22
- pIC50 (NCI-H460): 7.00
- pIC50 (BC-3): 5.63
- pIC50 (NCI-H345): < 4.80
- pIC50 (SCC-25): 7.35
- pIC50 (L-540): 6.67
- pIC50 (SW626): 7.14
- pIC50 (NCI-H187): 5.23
- pIC50 (SJRH30): 6.49

Compound: CCC/C=C/C=C/C(=O)O[C@H]1/C(=C/C(=O)OC)C[C@H]2C[C@H]([C@@H](C)O)OC(=O)C[C@H](O)C[C@@H]3C[C@H](OC(C)=O)C(C)(C)[C@](O)(C[C@@H]4C/C(=C/C(=O)OC)C[C@H](/C=C/C(C)(C)[C@]1(O)O2)O4)O3 [BRYOSTATIN 1]
- pIC50 (SW780): < 8.10
- pIC50 (CAL-12T): < 8.10
- pIC50 (GDM-1): < 8.10
- pIC50 (RPMI-6666): < 8.10
- pIC50 (OVCAR-5): < 8.10
- pIC50 (SW13): < 8.10
- pIC50 (U-251): < 8.10
- pIC50 (LK-2): < 8.10
- pIC50 (NCI-H2030): < 8.10
- pIC50 (RD): < 8.10
- pIC50 (MKN-28): < 8.10
- pIC50 (CAKI-1): < 8.10
- pIC50 (U2OS): < 8.10
- pIC50 (T-24): < 8.10
- pIC50 (PANC-03-27): < 8.10
- pIC50 (BT-20): < 8.10
- pIC50 (LU-99A): < 8.10
- pIC50 (C3A): < 8.10
- pIC50 (KYSE-70 cell line): < 8.10
- pIC50 (SIG-M5): 8.81
- pIC50 (DBTRG-05MG): < 8.10
- pIC50 (TE-15): < 8.10
- pIC50 (Daoy): < 8.10
- pIC50 (M059J): 8.70
- pIC50 (SK-N-AS): < 8.10
- pIC50 (NCI-H524): < 8.10
- pIC50 (NCI-H650): < 8.10
- pIC50 (GCT): < 8.10
- pIC50 (NCI-H1793): < 8.10
- pIC50 (AU565): < 8.10
- pIC50 (SW1088): < 8.10
- pIC50 (CMK): < 8.10
- pIC50 (A673): < 8.10
- pIC50 (SCLC-21H): < 8.10
- pIC50 (ARH-77): < 8.10
- pIC50 (LU-165): < 8.10
- pIC50 (SKG-IIIa): < 8.10
- pIC50 (BC1 cell line): < 8.10
- pIC50 (NCI-H460): < 8.10
- pIC50 (BC-3): < 8.10
- pIC50 (NCI-H345): < 8.10
- pIC50 (SCC-25): < 8.10
- pIC50 (L-540): < 8.10
- pIC50 (SW626): < 8.10
- pIC50 (NCI-H187): < 8.10
- pIC50 (SJRH30): < 8.10
